From the kinase profiling compilation of Christmann-Franck et al. (2016)

Experiments:
Test in all cases: radiometric filter-binding kinase assay, Kinase HotSpot
Settings in all cases: compound 0.5 µM; ATP 10 µM
[1] = target: ABL2 (human) (UniProt P42684)
[2] = target: ACVR1 (human) (UniProt Q04771)
[3] = target: AKT2 (human) (UniProt P31751)
[4] = target: CAMKK2 (human) (UniProt Q96RR4)
[5] = target: CDK2 CCNA2 (human) (UniProt P24941+P20248)
[6] = target: CLK4 (human) (UniProt Q9HAZ1)
[7] = target: CSNK2A1 (human) (UniProt P68400)
CSNK2A1 (human), sequence (P68400 whole entry, looked up): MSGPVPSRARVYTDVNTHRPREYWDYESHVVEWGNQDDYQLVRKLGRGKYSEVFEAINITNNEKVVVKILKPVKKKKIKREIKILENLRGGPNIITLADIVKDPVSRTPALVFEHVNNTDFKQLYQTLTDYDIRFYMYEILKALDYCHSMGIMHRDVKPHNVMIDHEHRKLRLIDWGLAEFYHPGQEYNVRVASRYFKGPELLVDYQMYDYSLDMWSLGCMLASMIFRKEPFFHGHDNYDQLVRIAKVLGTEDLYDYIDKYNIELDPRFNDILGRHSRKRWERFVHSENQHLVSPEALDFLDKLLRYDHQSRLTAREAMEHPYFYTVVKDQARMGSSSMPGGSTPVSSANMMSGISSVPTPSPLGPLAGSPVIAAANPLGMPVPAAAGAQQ

[8] = target: DYRK1B (human) (UniProt Q9Y463)
DYRK1B (human), sequence (Q9Y463 whole entry, looked up): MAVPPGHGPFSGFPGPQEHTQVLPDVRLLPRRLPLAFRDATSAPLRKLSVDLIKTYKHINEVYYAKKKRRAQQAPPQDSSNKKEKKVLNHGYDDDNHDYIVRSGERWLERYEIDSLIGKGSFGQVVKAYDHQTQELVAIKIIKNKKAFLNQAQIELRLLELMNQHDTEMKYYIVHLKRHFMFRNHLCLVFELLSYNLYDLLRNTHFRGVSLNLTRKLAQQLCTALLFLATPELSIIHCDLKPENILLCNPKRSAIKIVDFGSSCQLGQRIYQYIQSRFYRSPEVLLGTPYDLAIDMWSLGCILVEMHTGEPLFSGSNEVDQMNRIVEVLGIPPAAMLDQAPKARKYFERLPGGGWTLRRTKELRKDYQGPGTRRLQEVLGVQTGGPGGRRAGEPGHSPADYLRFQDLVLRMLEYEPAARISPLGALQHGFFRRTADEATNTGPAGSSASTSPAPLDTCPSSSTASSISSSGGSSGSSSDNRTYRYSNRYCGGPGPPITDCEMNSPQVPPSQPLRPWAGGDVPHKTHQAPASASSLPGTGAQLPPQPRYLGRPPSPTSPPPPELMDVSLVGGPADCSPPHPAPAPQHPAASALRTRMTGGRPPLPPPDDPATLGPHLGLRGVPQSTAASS

[9] = target: EPHA6 (human) (UniProt Q9UF33)
[10] = target: EPHA8 (human) (UniProt P29322)
[11] = target: FES (human) (UniProt P07332)
[12] = target: FGFR3 (human) (UniProt P22607)
[13] = target: FGR (human) (UniProt P09769)
[14] = target: HIPK2 (human) (UniProt Q9H2X6)
[15] = target: IGF1R (human) (UniProt P08069)
[16] = target: KDR (human) (UniProt P35968)
KDR (human), sequence (P35968 whole entry, looked up): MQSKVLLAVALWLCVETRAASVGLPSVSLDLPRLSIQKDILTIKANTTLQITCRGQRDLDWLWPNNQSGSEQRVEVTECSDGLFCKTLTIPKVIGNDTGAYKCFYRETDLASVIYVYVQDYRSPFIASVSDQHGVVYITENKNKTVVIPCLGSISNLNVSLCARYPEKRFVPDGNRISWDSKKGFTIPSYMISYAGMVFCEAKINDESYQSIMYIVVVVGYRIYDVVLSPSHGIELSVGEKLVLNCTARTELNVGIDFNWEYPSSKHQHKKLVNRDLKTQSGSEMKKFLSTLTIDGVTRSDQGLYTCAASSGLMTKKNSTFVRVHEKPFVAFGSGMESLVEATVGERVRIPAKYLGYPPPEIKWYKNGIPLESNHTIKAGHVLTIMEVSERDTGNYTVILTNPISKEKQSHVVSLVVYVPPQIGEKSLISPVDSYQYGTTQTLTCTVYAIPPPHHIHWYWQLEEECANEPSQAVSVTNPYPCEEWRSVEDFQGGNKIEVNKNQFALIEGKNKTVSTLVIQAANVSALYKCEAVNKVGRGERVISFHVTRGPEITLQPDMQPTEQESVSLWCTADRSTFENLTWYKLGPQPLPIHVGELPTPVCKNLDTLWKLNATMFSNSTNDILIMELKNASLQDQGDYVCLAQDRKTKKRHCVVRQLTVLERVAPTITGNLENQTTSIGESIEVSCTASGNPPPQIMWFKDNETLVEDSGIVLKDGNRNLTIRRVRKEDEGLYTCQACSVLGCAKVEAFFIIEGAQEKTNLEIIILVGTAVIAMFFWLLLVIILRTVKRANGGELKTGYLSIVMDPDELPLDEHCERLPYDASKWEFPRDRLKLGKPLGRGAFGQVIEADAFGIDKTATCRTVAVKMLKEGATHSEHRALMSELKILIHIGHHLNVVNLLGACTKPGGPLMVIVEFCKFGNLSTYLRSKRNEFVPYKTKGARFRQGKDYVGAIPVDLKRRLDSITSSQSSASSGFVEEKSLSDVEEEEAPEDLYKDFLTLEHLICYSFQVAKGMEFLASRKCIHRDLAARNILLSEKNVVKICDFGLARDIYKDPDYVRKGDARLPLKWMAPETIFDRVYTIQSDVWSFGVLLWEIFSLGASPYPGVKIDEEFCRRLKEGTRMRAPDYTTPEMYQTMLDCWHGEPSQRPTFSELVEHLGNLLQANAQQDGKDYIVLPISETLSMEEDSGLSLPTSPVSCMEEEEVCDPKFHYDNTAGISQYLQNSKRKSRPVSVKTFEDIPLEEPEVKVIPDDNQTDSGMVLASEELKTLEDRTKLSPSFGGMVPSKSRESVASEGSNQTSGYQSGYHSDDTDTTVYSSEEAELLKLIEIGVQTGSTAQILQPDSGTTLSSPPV

[17] = target: KIT (human) (UniProt P10721)
[18] = target: MAP3K7 TAB1 (human) (UniProt O43318+Q15750)
[19] = target: MAP4K4 (human) (UniProt O95819)
MAP4K4 (human), sequence (O95819 whole entry, looked up): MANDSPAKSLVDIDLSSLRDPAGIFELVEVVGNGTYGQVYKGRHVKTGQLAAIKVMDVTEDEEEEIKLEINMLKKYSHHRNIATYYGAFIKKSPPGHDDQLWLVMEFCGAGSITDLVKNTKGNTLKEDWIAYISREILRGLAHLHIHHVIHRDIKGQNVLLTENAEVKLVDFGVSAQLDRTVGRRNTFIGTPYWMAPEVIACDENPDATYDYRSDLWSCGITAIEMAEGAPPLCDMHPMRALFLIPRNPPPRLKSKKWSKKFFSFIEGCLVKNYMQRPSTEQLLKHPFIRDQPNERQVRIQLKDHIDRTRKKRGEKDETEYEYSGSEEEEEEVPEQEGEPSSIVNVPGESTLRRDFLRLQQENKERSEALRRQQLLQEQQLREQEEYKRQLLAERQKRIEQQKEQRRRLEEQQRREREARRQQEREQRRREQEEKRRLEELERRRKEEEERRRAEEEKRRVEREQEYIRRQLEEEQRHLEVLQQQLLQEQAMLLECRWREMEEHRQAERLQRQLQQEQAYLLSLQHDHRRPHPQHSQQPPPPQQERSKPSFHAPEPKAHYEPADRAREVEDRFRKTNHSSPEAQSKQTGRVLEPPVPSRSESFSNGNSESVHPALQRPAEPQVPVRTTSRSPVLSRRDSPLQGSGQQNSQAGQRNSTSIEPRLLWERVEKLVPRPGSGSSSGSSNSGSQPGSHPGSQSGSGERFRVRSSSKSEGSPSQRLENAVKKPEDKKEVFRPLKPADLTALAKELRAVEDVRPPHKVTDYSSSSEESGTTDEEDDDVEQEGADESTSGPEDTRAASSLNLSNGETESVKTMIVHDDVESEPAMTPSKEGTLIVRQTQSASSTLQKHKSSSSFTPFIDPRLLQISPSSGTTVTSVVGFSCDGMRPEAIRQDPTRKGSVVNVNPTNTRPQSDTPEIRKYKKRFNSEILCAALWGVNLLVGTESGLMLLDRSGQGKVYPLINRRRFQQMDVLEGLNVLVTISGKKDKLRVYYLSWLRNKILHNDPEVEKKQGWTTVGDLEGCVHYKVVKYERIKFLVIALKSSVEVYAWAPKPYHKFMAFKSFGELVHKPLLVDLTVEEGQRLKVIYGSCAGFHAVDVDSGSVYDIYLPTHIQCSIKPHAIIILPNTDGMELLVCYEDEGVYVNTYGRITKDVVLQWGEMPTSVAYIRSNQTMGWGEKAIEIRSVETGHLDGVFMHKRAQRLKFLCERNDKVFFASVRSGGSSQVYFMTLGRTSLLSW

[20] = target: MAPKAPK2 (human) (UniProt P49137)
[21] = target: MST1R (human) (UniProt Q04912)
[22] = target: NEK3 (human) (UniProt P51956)
[23] = target: NEK6 (human) (UniProt Q9HC98)
[24] = target: NUAK2 (human) (UniProt Q9H093)
[25] = target: OXSR1 (human) (UniProt O95747)
[26] = target: PBK (human) (UniProt Q96KB5)
[27] = target: PDGFRB (human) (UniProt P09619)
[28] = target: PIM2 (human) (UniProt Q9P1W9)
[29] = target: PRKCA (human) (UniProt P17252)
[30] = target: PRKD1 (human) (UniProt Q15139)
[31] = target: PTK2 (human) (UniProt Q05397)
[32] = target: RIPK2 (human) (UniProt O43353)
[33] = target: ROCK1 (human) (UniProt Q13464)
[34] = target: SGK2 (human) (UniProt Q9HBY8)
[35] = target: SIK2 (human) (UniProt Q9H0K1)
[36] = target: STK16 (human) (UniProt O75716)
[37] = target: STK24 (human) (UniProt Q9Y6E0)
[38] = target: STK4 (human) (UniProt Q13043)
[39] = target: SYK (human) (UniProt P43405)
[40] = target: TAOK3 (human) (UniProt Q9H2K8)
TAOK3 (human), sequence (Q9H2K8 whole entry, looked up): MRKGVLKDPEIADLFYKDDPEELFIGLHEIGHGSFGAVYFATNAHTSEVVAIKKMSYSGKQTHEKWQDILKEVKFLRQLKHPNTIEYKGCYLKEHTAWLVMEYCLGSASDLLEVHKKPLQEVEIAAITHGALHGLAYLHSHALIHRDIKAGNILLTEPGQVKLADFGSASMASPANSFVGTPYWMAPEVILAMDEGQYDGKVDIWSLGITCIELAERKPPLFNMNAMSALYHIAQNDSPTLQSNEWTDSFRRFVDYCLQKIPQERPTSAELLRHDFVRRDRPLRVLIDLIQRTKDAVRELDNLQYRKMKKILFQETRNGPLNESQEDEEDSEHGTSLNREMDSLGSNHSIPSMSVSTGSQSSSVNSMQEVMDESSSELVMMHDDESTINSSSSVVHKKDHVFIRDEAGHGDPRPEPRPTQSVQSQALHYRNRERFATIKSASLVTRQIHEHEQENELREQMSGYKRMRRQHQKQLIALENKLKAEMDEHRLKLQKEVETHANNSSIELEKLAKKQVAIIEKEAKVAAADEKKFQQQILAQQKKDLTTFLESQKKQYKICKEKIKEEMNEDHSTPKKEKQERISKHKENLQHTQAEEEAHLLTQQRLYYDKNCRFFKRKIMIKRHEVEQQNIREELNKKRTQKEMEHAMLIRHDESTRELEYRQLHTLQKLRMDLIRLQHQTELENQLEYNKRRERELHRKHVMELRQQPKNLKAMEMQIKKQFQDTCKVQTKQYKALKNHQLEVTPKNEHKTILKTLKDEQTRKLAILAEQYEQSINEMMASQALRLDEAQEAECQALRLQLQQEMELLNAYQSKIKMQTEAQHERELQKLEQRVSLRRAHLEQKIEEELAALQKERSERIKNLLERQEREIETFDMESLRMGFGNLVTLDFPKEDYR

[41] = target: TTK (human) (UniProt P33981)
[42] = target: TYK2 JH1 catalytic (human) (UniProt P29597)

CDK2 CCNA2 (human), sequence (P20248 whole entry, looked up, other chains not shown): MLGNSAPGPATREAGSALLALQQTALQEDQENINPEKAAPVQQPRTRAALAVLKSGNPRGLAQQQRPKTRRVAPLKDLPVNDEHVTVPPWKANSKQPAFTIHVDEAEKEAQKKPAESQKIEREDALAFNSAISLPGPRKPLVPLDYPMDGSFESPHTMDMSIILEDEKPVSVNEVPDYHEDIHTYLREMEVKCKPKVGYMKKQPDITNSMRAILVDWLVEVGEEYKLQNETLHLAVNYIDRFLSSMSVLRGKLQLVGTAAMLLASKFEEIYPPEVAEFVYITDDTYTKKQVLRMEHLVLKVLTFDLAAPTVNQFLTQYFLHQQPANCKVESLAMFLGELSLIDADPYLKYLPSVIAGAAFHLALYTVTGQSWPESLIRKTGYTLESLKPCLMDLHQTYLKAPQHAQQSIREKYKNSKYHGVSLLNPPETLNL

N#CC(C#N)=C(N)/C(C#N)=C/c1ccc(O)cc1
residual activity [1]: 94.9% | residual activity [2]: 93.8% | residual activity [3]: 92.8% | residual activity [4]: 91.6% | residual activity [5]: 97.9% | residual activity [6]: 101% | residual activity [7]: 104% | residual activity [8]: 101% | residual activity [9]: 98.6% | residual activity [10]: 102% | residual activity [11]: 101% | residual activity [12]: 98.9% | residual activity [13]: 98.7% | residual activity [14]: 102% | residual activity [15]: 90.6% | residual activity [16]: 97.2% | residual activity [17]: 92.4% | residual activity [18]: 94.8% | residual activity [19]: 91.2% | residual activity [20]: 91.3% | residual activity [21]: 102% | residual activity [22]: 98% | residual activity [23]: 97.3% | residual activity [24]: 122% | residual activity [25]: 72.2% | residual activity [26]: 96.4% | residual activity [27]: 98.8% | residual activity [28]: 88.2% | residual activity [29]: 97.4% | residual activity [30]: 101% | residual activity [31]: 98.5% | residual activity [32]: 95.5% | residual activity [33]: 100% | residual activity [34]: 110% | residual activity [35]: 87.7% | residual activity [36]: 109% | residual activity [37]: 103% | residual activity [38]: 99.1% | residual activity [39]: 101% | residual activity [40]: 102% | residual activity [41]: 94.4% | residual activity [42]: 97.4%

CCCC(=O)Oc1ccc2[nH]c(C(=O)c3cc4ccccc4[nH]3)cc2c1
residual activity [1]: 96.3% | residual activity [2]: 100% | residual activity [3]: 105% | residual activity [4]: 84.6% | residual activity [5]: 88.9% | residual activity [6]: 90.2% | residual activity [7]: 99.8% | residual activity [8]: 103% | residual activity [9]: 88% | residual activity [10]: 98% | residual activity [11]: 97.8% | residual activity [12]: 95.2% | residual activity [13]: 88.4% | residual activity [14]: 92.1% | residual activity [15]: 88.3% | residual activity [16]: 90.4% | residual activity [17]: 82.4% | residual activity [18]: 92.1% | residual activity [19]: 97.3% | residual activity [20]: 92.4% | residual activity [21]: 103% | residual activity [22]: 95.5% | residual activity [23]: 101% | residual activity [24]: 73.4% | residual activity [25]: 92.4% | residual activity [26]: 104% | residual activity [27]: 91.2% | residual activity [28]: 101% | residual activity [29]: 102% | residual activity [30]: 88.7% | residual activity [31]: 94.1% | residual activity [32]: 90% | residual activity [33]: 105% | residual activity [34]: 99.4% | residual activity [35]: 97.6% | residual activity [36]: 100% | residual activity [37]: 95.5% | residual activity [38]: 96.8% | residual activity [39]: 93.9% | residual activity [40]: 86.7% | residual activity [41]: 85.7% | residual activity [42]: 90.7%

CNc1cc2c(Nc3cccc(Br)c3)ncnc2cn1
residual activity [1]: 84.8% | residual activity [2]: 104% | residual activity [3]: 99.6% | residual activity [4]: 80% | residual activity [5]: 106% | residual activity [6]: 60.9% | residual activity [7]: 94.3% | residual activity [8]: 92.3% | residual activity [9]: 70% | residual activity [10]: 87.9% | residual activity [11]: 96.9% | residual activity [12]: 85.4% | residual activity [13]: 88.3% | residual activity [14]: 98.4% | residual activity [15]: 115% | residual activity [16]: 77.6% | residual activity [17]: 86.4% | residual activity [18]: 94.9% | residual activity [19]: 86.9% | residual activity [20]: 99.6% | residual activity [21]: 73.9% | residual activity [22]: 101% | residual activity [23]: 89.8% | residual activity [24]: 85% | residual activity [25]: 88.3% | residual activity [26]: 102% | residual activity [27]: 86.4% | residual activity [28]: 102% | residual activity [29]: 101% | residual activity [30]: 92.3% | residual activity [31]: 90.2% | residual activity [32]: 69.2% | residual activity [33]: 98.8% | residual activity [34]: 96.6% | residual activity [35]: 98.3% | residual activity [36]: 98.6% | residual activity [37]: 101% | residual activity [38]: 95.4% | residual activity [39]: 95.3% | residual activity [40]: 94% | residual activity [41]: 100% | residual activity [42]: 80.8%

O=C1NC(=O)c2c1c1c3ccccc3n3c1c1c2c2ccccc2n1C1CCC3O1
residual activity [1]: 68% | residual activity [2]: 85.8% | residual activity [3]: 48.5% | residual activity [4]: 7.93% | residual activity [5]: 15.6% | residual activity [6]: 20.3% | residual activity [7]: 16.7% | residual activity [8]: 3.15% | residual activity [9]: 63.9% | residual activity [10]: 89.9% | residual activity [11]: 42.1% | residual activity [12]: 36.3% | residual activity [13]: 30.9% | residual activity [14]: 32.6% | residual activity [15]: 63.8% | residual activity [16]: 4.55% | residual activity [17]: 60.8% | residual activity [18]: 6.06% | residual activity [19]: 0.995% | residual activity [20]: 99.2% | residual activity [21]: 87.7% | residual activity [22]: 102% | residual activity [23]: 93.1% | residual activity [24]: 52% | residual activity [25]: 92.4% | residual activity [26]: 39.9% | residual activity [27]: 19.1% | residual activity [28]: 1.86% | residual activity [29]: 13.9% | residual activity [30]: 1.89% | residual activity [31]: 23.5% | residual activity [32]: 79.7% | residual activity [33]: 88.7% | residual activity [34]: 18.6% | residual activity [35]: 33.9% | residual activity [36]: 58.1% | residual activity [37]: 14.3% | residual activity [38]: 3.56% | residual activity [39]: 15.8% | residual activity [40]: 24.5% | residual activity [41]: 76.4% | residual activity [42]: 4.32%
